Results: US4458079A, “Sulfur-containing imidazoles” (Bristol-Myers Company, priority 1980, dated 1984)
Converted amounts (≈) assume the structure as drawn.

Key:
Format in all cases: cell-based
[1] = system: Candida albicans; experiment: MIC in Sabouraud broth (broth dilution); conditions: 24 h, read-out: Minimum Inhibitory Concentration (MIC)
From the text: (§1) The antifungal activity of some of the compounds of Formula I against a number of human and animal pathogenic fungi is given in Table I for either a liquid medium (Sabouraud broth) or an agar medium (Sabouraud broth plus 1% ionagar). Two-fold serial dilutions were made with Sabouraud's liquid medium from stock solutions of the test compounds, usually in dimethyl sulfoxide, N,N-dimethylformamide or water. The Minimum Inhibitory Concentrations (MIC's), which were considered to be the minimum concentrations of the test compounds in micrograms per milliliter which prevent grossly detectable growth of the test organisms, were then determined after inoculation of the medicated broths with the test organisms, and incubation at the appropriate temperature and for the appropriate time interval. Candida species were incubated for 24 hours at 37°, while the dermatophytes Trichophyton rubrum, Trichophyton mentagrophytes and Microsporum canis were incubated for five days at 28°. The agar dilution assay was essentially the same as the broth dilution assay except that 1% inoagar was added to the Sabouraud broth.

[2] = system: Candida krusei; experiment: MIC in Sabouraud broth (broth dilution); conditions: Pichia kudriavzevii, strain A 15052, 24 hours at 37°, read-out: Minimum Inhibitory Concentration (MIC)
From the text: as §1

[3] = system: Candida tropicalis; experiment: MIC in Sabouraud broth (broth dilution); conditions: strain A 15051, 24 hours at 37°, read-out: Minimum Inhibitory Concentration (MIC)
From the text: as §1

[4] = system: Microsporum canis; experiment: MIC in Sabouraud broth (broth dilution); conditions: 120 h, read-out: Minimum Inhibitory Concentration (MIC)
From the text: as §1

[5] = system: Trichophyton mentagrophytes; experiment: MIC in Sabouraud broth (broth dilution); conditions: 120 h, strain A 9870, five days at 28°, read-out: Minimum Inhibitory Concentration (MIC)
From the text: as §1

[6] = system: Trichophyton rubrum; experiment: MIC in Sabouraud broth (broth dilution); conditions: 120 h, strain A 22789, five days at 28°, read-out: Minimum Inhibitory Concentration (MIC)
From the text: as §1

[7] = system: Candida albicans; experiment: MIC in Sabouraud broth plus 1% ionagar (agar dilution); conditions: 24 h, read-out: Minimum Inhibitory Concentration (MIC)
From the text: as §1

[8] = system: Candida krusei; experiment: as above; conditions: Pichia kudriavzevii, strain A 15052, 24 hours at 37°, read-out: Minimum Inhibitory Concentration (MIC)
From the text: as §1

[9] = system: Candida tropicalis; experiment: as above; conditions: strain A 15051, 24 hours at 37°, read-out: Minimum Inhibitory Concentration (MIC)
From the text: as §1

[10] = system: Microsporum canis; experiment: as above; conditions: 120 h, read-out: Minimum Inhibitory Concentration (MIC)
From the text: as §1

[11] = system: Trichophyton mentagrophytes; experiment: as above; conditions: 120 h, strain A 9870, five days at 28°, read-out: Minimum Inhibitory Concentration (MIC)
From the text: as §1

[12] = system: Trichophyton rubrum; experiment: as above; conditions: 120 h, strain A 22789, five days at 28°, read-out: Minimum Inhibitory Concentration (MIC)
From the text: as §1

[13] = strain A 15049, 24 hours at 37°
[14] = strain A 9872, five days at 28°
[15] = strain A 22494, five days at 28°

SMILES | MIC ([1]; strain A 1505, 24 hours at 37°) | MIC ([1]; strain A 9540, 24 hours at 37°) | MIC [1, 13] | MIC [2] | MIC [3] | MIC [4, 14] | MIC [4, 15] | MIC [5] | MIC [6] | MIC ([7]; strain A 1505, 24 hours at 37°) | MIC ([7]; strain A 9540, 24 hours at 37°) | MIC [7, 13] | MIC [8] | MIC [9] | MIC [10, 14] | MIC [10, 15] | MIC [11] | MIC [12]
Cc1ccc(CSC(Cn2ccnc2)SCc2ccc(C)cc2)cc1.Cl [2(j), 1-[2,2-bis(4-methylbenzylthio)ethyl]-1H-imidazole hydrochloride] | 4 µg/mL | 4 µg/mL | 4 µg/mL | 8 µg/mL | > 16 µg/mL | 0.063 µg/mL | 0.063 µg/mL | 0.063 µg/mL | 0.063 µg/mL | – | – | – | – | – | – | – | – | –
CSc1ccc(CSC(Cn2ccnc2)SCc2ccc(SC)cc2)cc1.Cl [2(l), 1-[2,2-bis(4-methylthiobenzylthio)ethyl]-1H-imidazole hydrochloride] | > 16 µg/mL | > 16 µg/mL | > 16 µg/mL | 8 µg/mL | > 16 µg/mL | 0.063 µg/mL | 0.13 µg/mL | 0.063 µg/mL | 0.063 µg/mL | – | – | – | – | – | – | – | – | –
Cl.Clc1ccc(CSC(Cn2ccnc2)SCc2ccc(Cl)s2)s1 [2(p), 1-[2,2-bis(5-chloro-2-thienylmethylthio)ethyl]-1H-imidazole hydrochloride] | – | – | – | – | – | – | – | – | – | 4 µg/mL | 4 µg/mL | 4 µg/mL | 8 µg/mL | 125 µg/mL | 0.25 µg/mL | 0.032 µg/mL | 0.5 µg/mL | 0.5 µg/mL

Next, values leading:

MIC ([1]; strain A 1505, 24 hours at 37°) | MIC ([1]; strain A 9540, 24 hours at 37°) | MIC [1, 13] | MIC [2] | MIC [3] | MIC [4, 14] | MIC [4, 15] | MIC [5] | MIC [6] | MIC ([7]; strain A 1505, 24 hours at 37°) | MIC ([7]; strain A 9540, 24 hours at 37°) | MIC [7, 13] | MIC [8] | MIC [9] | MIC [10, 14] | MIC [10, 15] | MIC [11] | MIC [12] | SMILES
> 16 µg/mL | > 16 µg/mL | > 16 µg/mL | > 16 µg/mL | > 16 µg/mL | 0.032 µg/mL (≈ 0.0669 µM) | 0.063 µg/mL (≈ 0.132 µM) | 0.063 µg/mL (≈ 0.132 µM) | 0.063 µg/mL (≈ 0.132 µM) | – | – | – | – | – | – | – | – | – | Clc1ccc(CSC(Cn2ccnc2)SCc2ccc(Cl)cc2Cl)c(Cl)c1 [2(g), 1-[2,2-bis(2,4-dichlorobenzylthio)ethyl]-1H-imidazole]
– | – | – | – | – | – | – | – | – | 16 µg/mL | 8 µg/mL | 16 µg/mL | 32 µg/mL | 63 µg/mL | 1 µg/mL | 0.25 µg/mL | 1 µg/mL | 0.5 µg/mL | Clc1cccc(Cl)c1CSC(Cn1ccnc1)SCc1c(Cl)cccc1Cl.O=C(O)C(=O)O [2(h), 1-[2,2-bis(2,6-dichlorobenzylthio)ethyl]-1H-imidazole hydrogen oxalate]
2 µg/mL | 1 µg/mL | 2 µg/mL | 0.5 µg/mL | > 16 µg/mL | 0.032 µg/mL | 0.063 µg/mL | 0.032 µg/mL | 0.063 µg/mL | – | – | – | – | – | – | – | – | – | Cl.Clc1ccc(CSC(Cn2ccnc2)SCc2ccc(Cl)cc2)cc1 [Example 1, 1-[2,2-Bis(4-chlorobenzylthio)ethyl]-1H-imidazole Hydrochloride]
– | – | – | – | – | – | – | – | – | 4 µg/mL | 4 µg/mL | 4 µg/mL | 4 µg/mL | 32 µg/mL | 0.25 µg/mL | 0.032 µg/mL | 0.063 µg/mL | 0.25 µg/mL | Cl.Clc1ccc(CSC(Cn2ccnc2)Sc2ccc(Cl)cc2)cc1 (stereo not drawn) [Example 5, 1-[2-(4-Chlorobenzylthio)-2-(4-chlorophenylthio)ethyl]-1H-imidazole Hydrochloride]
